One test concerns HBV viral load (viral production from HepAD38 cells). Nature of the test: Activity of test compounds on viral production from HepAD38 cells (viral load by qPCR of HBV core sequence). In kind it is cell-based. The note with it: Hepatitis B virus, HePAD38, 120 h, viral load lowering, 5 days, qPCR of supernatant, read-out: VL HepAD38 EC50 range. How it is done:
Assay Measuring Activity of Test Compounds on Viral Production from HepAD38 Cells
HepAD38 cells grown in a T-150 flask (Corning, cat #: 430825) with Growth Medium (DMEM/F12 (1:1) (Hyclone, cat #: SH30023.02), 1× Pen/Strep (Invitrogen, cat #: 15140-122), 10% FBS (Tissue Culture Biologics, cat #: 101), 250 μg/mL G418 (Alfa Aesar, cat #: J62671), 1 μg/mL Tetracycline (Teknova, cat #: T3320)) were detached with 0.25% trypsin-EDTA (Invitrogen, cat #: 25200-056). Tetracycline-free treatment medium (15 mL DMEM/F12 (1:1) 1× Pen/step, with 2% FBS, Tet-system approved (Clontech, cat #: 631106) were then added to mix, transferred into a 50 ml conical tube (Falcon, cat #: 21008-918) and spun at 1300 rpm for 5 min. Pelleted cells were then re-suspended/washed with 50 mL of 1×DPBS (Invitrogen, cat #: 14190-136) 2 times and 50 mL treatment medium twice. HepAD38 cells were then re-suspended with 10 mL of treatment medium, syringed and counted. Wells of 96-well clear bottom TC plate (Corning, cat #: 3904) were seeded at 50,000 cells/well in 180 μL of treatment medium, and 20 μL of either 10% DMSO (Sigma, cat #: D4540) as controls or a 10× solution of test compounds in 10% DMSO in treatment media was added for a final compound concentration starting at 10 μM, and plates were incubated in 5% CO2 incubator at 37° C. for 5 days.
Subsequently viral load production was assayed by quantitative PCR (qPCR) of the HBV core sequence. PCR reaction mixture containing forward primers HBV-f 5′-CTGTGCCTTGGGTGGCITT-3′ (IDT DNA), Reverse primers HBV-r 5′-[…]-3′ (IDT DNA), Fluorescent TaqMan™ Probes HBV-probe 5′-FAM/AGCTCCAAA/ZENMITCTITATAAGGGTCGATGTC/3IABkFQ-3′ (IDT DNA), 10 μL/well of PerfeCTa® qPCR ToughMix® (Quanta Biosciences, Cat #: 95114-05K), and 6 μL/well of DEPC water (Alfa Aesar, cat #: J62087) was prepared. Four μL of supernatant was added to 16 μL of the reaction mixture in a qPCR plate (Applied Biosytems, Cat #: 4309849), sealed with a film (Applied Biosystems, Cat #: 4311971), centrifuged for a few seconds, and subsequently run on an Applied Biosystems VIIA7. The PCR mixture was incubated at 45° C. for 5 min, then 95° C. for 10 min, followed by 40 cycles of 10 seconds at 95° C. and 20 seconds at 60° C. Viral load was quantified against known HBV DNA standards by using ViiA™ 7 Software. Viral load in the supernatant from wells with treated cells were compared against viral load in supernatant from DMSO control wells (3 per plate). Cell viability assay was performed with CellTiter-Glo Luminescent Cell Viability Assay (Promega, cat #: G7573) with modification. Mixed appropriate amount of CellTiter-Glo (CTG) 1×DPBS in a 1:1 ratio, added 100 uL of the mixture to each well followed completely removal of all supernatant in each well without touching cell surface. Incubated the plate at room temperature for 10 min on an orbital shaker, and then read the plate with a plate reader (TECAN M1000 or Envision). EC50 or CC50 values were calculated through curve-fitting of the four-parameter nonlinear-logistic-regression model (GraphPad Prism or Dotmatics). CC50 values were all >10 μM.
On the technique in general: Real-time PCR tracks product formation cycle by cycle.
Consider `[2H]C([2H])([2H])n1nccc1C1(O)CC2CC(c3ncn(C)c3C(=O)Nc3ccc(F)c(Cl)c3)CC2C1` (stereo not drawn) [Example 137, N-(3-chloro-4-fluorophenyl)-4-(5-hydroxy-5-(1-(methyl-d3)-1H-pyrazol-5-yl)octahydropentalen-2-yl)-1-methyl-1H-imidazole-5-carboxamide], for which the EC50 (commonly the midpoint of the concentration-response curve) is less than 10 nM. On to `Cn1cc(Cl)c(C2(O)CC3CC(c4ncn(C)c4C(=O)Nc4ccc(F)c(Cl)c4)CC3C2)n1` (stereo not drawn) [Example 139, 4-(5-(4-Chloro-1-methyl-1H-pyrazol-3-yl)-5-hydroxyoctahydropentalen-2-yl)-N-(3-chloro-4-fluorophenyl)-1-methyl-1H-imidazole-5-carboxamide], for which the half-maximal effective concentration (EC50) was less than 10 nM. Regarding `Cn1cnc(C2CC3CC(O)(c4c(Br)c(C#N)nn4C)CC3C2)c1C(=O)Nc1ccc(F)c(Cl)c1` (stereo not drawn) [Example 181, 4-(5-(4-Bromo-3-cyano-1-methyl-1H-pyrazol-5-yl)-5-hydroxyoctahydropentalen-2-yl)-N-(3-chloro-4-fluorophenyl)-1-methyl-1H-imidazole-5-carboxamide], the concentration for a half-maximal effect (EC50) was less than 10 nM. On to `CCn1nc(C(F)(F)F)cc1C1(O)CC2CC(c3ncn(C)c3C(=O)Nc3ccc(F)c(Cl)c3)CC2C1` (stereo not drawn) [Example 173, N-(3-Chloro-4-fluorophenyl)-4-(5-(1-ethyl-3-(trifluoromethyl)-1H-pyrazol-5-yl)-5-hydroxyoctahydropentalen-2-yl)-1-methyl-1H-imidazole-5-carboxamide], for which the EC50 was less than 10 nM. Take `Cc1cnn(C)c1C1(O)CC2CC(c3ncn(C)c3C(=O)Nc3ccc(F)c(Cl)c3)CC2C1` (stereo not drawn) [Example 131, N-(3-chloro-4-fluorophenyl)-4-(5-(1,4-dimethyl-1H-pyrazol-5-yl)-5-hydroxyoctahydropentalen-2-yl)-1-methyl-1H-imidazole-5-carboxamide]: the EC50 was less than 10 nM. The same measure, in the same setting: the result for `CCn1nccc1C1(O)CC2CC(c3ncn(C)c3C(=O)Nc3ccc(F)c(Cl)c3)CC2C1` (stereo not drawn) [Example 119, N-(3-chloro-4-fluorophenyl)-4-(5-(1-ethyl-1H-pyrazol-5-yl)-5-hydroxyoctahydropentalen-2-yl)-1-methyl-1H-imidazole-5-carboxamide] reads less than 10 nM; that for `CC(C)Cn1nc(N)c(Cl)c1C1(O)CC2CC(c3ncn(C)c3C(=O)Nc3ccc(F)c(Cl)c3)CC2C1` (stereo not drawn) [Example 172, 4-(5-(3-Amino-4-chloro-1-isobutyl-1H-pyrazol-5-yl)-5-hydroxyoctahydropentalen-2-yl)-N-(3-Chloro-4-fluorophenyl)-1-methyl-1H-imidazole-5-carboxamide], less than 10 nM; that for `Cn1cnc(C2CC3CC(N)CC3C2)c1C(=O)Nc1ccc(F)c(Cl)c1` (stereo not drawn) [Example 13, 4-(5-Aminooctahydropentalen-2-yl)-N-(3-chloro-4-fluorophenyl)-1-methyl-1H-imidazole-5-carboxamide], 10 to 50 nM. For the compound `Cn1cnc(C2CC3CC(O)(c4c(Cl)c(N)nn4C)CC3C2)c1C(=O)Nc1ccc(F)cc1` (stereo not drawn) [Example 103, 4-(5-(3-amino-4-chloro-1-methyl-1H-pyrazol-5-yl)-5-hydroxyoctahydropentalen-2-yl)-N-(4-fluorophenyl)-1-methyl-1H-imidazole-5-carboxamide], the concentration giving a half-maximal response (EC50) was less than 10 nM. Turning to `Cn1cc(CC2(O)CC3CC(c4ncn(C)c4C(=O)Nc4ccc(F)c(Cl)c4)CC3C2)cn1` (stereo not drawn) [Example 130, N-(3-chloro-4-fluorophenyl)-4-(5-hydroxy-5-((1-methyl-1H-pyrazol-4-yl)methyl)octahydropentalen-2-yl)-1-methyl-1H-imidazole-5-carboxamide], the EC50 was less than 10 nM. As to `Cn1cnc(C2CC3CC(O)(c4c(F)c(C#N)nn4C)CC3C2)c1C(=O)Nc1ccc(F)c(Cl)c1` (stereo not drawn) [Example 64, N-(3-Chloro-4-fluorophenyl)-4-(5-(3-cyano-4-fluoro-1-methyl-1H-pyrazol-5-yl)-5-hydroxyoctahydropentalen-2-yl)-1-methyl-1H-Imidazole-5-carboxamide], the EC50 was less than 10 nM. As for `Cn1cnc(C2CC3CC(O)(Cn4ccc(C(C)(C)C)n4)CC3C2)c1C(=O)Nc1ccc(F)c(Cl)c1` (stereo not drawn) [Example 97, 4-(5-((3-(tert-butyl)-1H-pyrazol-1-yl)methyl)-5-hydroxyoctahydropentalen-2-yl)-N-(3-chloro-4-fluorophenyl)-1-methyl-1H-imidazole-5-carboxamide], the concentration giving a half-maximal response (EC50) is less than 10 nM. As for `CCC(O)COc1cc(C2(O)CC3CC(c4ncn(C)c4C(=O)Nc4ccc(F)c(Cl)c4)CC3C2)n(C)n1` (stereo not drawn) [Example 203, N-(3-Chloro-4-fluorophenyl)-4-(5-hydroxy-5-(3-(2-hydroxybutoxy)-1-methyl-1H-pyrazol-5-yl)octahydropentalen-2-yl)-1-methyl-1H-imidazole-5-carboxamide], the EC50 was less than 10 nM. In the case of `O=C(Nc1ccc(F)c(Cl)c1)c1[nH]cnc1C1CC2CC(O)CC2C1` (stereo not drawn) [Example 223], the concentration giving a half-maximal response (EC50) was 50 to 500 nM. Turning to `O=C(Nc1ccc(F)c(Cl)c1)c1c(C2CC3CC(O)CC3C2)nc2n1CCNC2` (stereo not drawn) [Example 85, N-(3-chloro-4-fluorophenyl)-2-(5-hydroxyoctahydropentalen-2-yl)-5,6,7,8-tetrahydroimidazo[1,2-a]pyrazine-3-carboxamide], the EC50 fell in the range of 50 to 500 nM. The same measure, in the same setting: the value for `CNc1nc(C2CC3CC(O)CC3C2)c(C(=O)Nc2ccc(F)c(Cl)c2)n1C` (stereo not drawn) [Example 30, N-(3-Chloro-4-fluorophenyl)-4-(5-hydroxyoctahydropentalen-2-yl)-1-methyl-2-(methylamino)-1H-imidazole-5-carboxamide] was less than 10 nM; that for `Cn1cnc(C2CC3CC(O)(CS(C)(=O)=O)CC3C2)c1C(=O)Nc1ccc(F)c(Cl)c1` (single isomer, unassigned) [Example 3, N-(3-Chloro-4-fluorophenyl)-4-(5-hydroxy-5-((methylsulfonyl)methyl)octahydropentalen-2-yl)-1-methyl-1H-imidazole-5-carboxamide] was less than 10 nM; that for `CC(O)c1nn(C)cc1C1(O)CC2CC(c3ncn(C)c3C(=O)Nc3ccc(F)c(Cl)c3)CC2C1` (stereo not drawn) [Example 186, N-(3-Chloro-4-fluorophenyl)-4-(5-hydroxy-5-(3-(1-hydroxyethyl)-1-methyl-1H-pyrazol-4-yl)octahydropentalen-2-yl)-1-methyl-1H-imidazole-5-carboxamide] was less than 10 nM.

Still in this test, the particulars now being: read-out: VL HepAD38 EC50 range, viral load lowering, 5 days, qPCR of supernatant.
Take `O=C1CC2CC(c3nc4n(c3C(=O)Nc3ccc(F)c(Cl)c3)CCCC4)CC2C1` (stereo not drawn) [Example 40, 2-[-5-Oxo-2,3,3a,4,6,6a-hexahydro-1H-pentalen-2-yl]-N-(3-chloro-4-fluorophenyl)-5,6,7,8-tetrahydroimidazo[1,2-a]pyridine-3-carboxamide]: the concentration for a half-maximal effect (EC50) lay within 50 to 500 nM.

The same test, now with this note: viral load lowering, 5 days, qPCR of supernatant, read-out: VL HepAD38 EC50 range.
In the case of `Cn1cnc(C2CC3CC(O)(CO)CC3C2)c1C(=O)Nc1ccc(F)c(Cl)c1` (single isomer, unassigned) [Example 20, N-(3-Chloro-4-fluorophenyl)-4-(5-hydroxy-5-(hydroxymethyl)octahydro-pentalen-2-yl)-1-methyl-1H-imidazole-5-carboxamide], the EC50 was less than 10 nM.

Regarding `CC(O)COc1cc(C2(O)CC3CC(c4ncn(C)c4C(=O)Nc4ccc(F)c(Cl)c4)CC3C2)n(C)n1` (single isomer, unassigned) [Example 210, N-(3-Chloro-4-fluorophenyl)-4-(5-hydroxy-5-(3-(2-hydroxypropoxy)-1-methyl-1H-pyrazol-5-yl)octahydropentalen-2-yl)-1-methyl-1H-imidazole-5-carboxamide], the concentration for a half-maximal effect (EC50) is less than 10 nM.

The record behind these values is US12655130B2 (ASSEMBLY BIOSCIENCES, INC., priority 2020, dated 2026).
